Results on 25 molecules are retold here after patent US20240216357A1 (SICHUAN HUIYU PHARMACEUTICAL CO., LTD., priority 2021, published 2024).

Where a name gives a salt, the structure may show the parent alone. Read-outs that look alike come from different tables or passages of the source. Bounds are passed on as bounds.

One series relates to NCI-H1417 cells. Kind of series: In vitro cell proliferation detection (CellTiter-Glo, 7 days). The series is classed as cell-based. The following applies: read-out: NCI-H1417 proliferation inhibition IC50. (Cellular ATP, detected with luciferase, serves as a proxy for viable cell number.)
The target of series [1] is voltage-gated potassium ion channel hERG (Homo sapiens (Human), UniProt Q12809). Kind of series: hERG inhibition test (manual patch-clamp). (Block of hERG is tested as a sign of cardiac risk.)
A further series deals with LSD1 (Homo sapiens (Human), UniProt O60341). Put plainly: LSD1 enzyme activity detection (HTRF). The series is classed as biochemical. The following applies: read-out: Inhibition of enzymatic activity of LSD1 IC50.
[2] abbreviates: Homo sapiens, 168 h, NCI-H1417 cells, 7 days, CellTiter-Glo.
The mark [3] stands for this setting: read-out: hERG IC50, manual patch-clamp.

Chain of voltage-gated potassium ion channel hERG (Q12809 whole entry): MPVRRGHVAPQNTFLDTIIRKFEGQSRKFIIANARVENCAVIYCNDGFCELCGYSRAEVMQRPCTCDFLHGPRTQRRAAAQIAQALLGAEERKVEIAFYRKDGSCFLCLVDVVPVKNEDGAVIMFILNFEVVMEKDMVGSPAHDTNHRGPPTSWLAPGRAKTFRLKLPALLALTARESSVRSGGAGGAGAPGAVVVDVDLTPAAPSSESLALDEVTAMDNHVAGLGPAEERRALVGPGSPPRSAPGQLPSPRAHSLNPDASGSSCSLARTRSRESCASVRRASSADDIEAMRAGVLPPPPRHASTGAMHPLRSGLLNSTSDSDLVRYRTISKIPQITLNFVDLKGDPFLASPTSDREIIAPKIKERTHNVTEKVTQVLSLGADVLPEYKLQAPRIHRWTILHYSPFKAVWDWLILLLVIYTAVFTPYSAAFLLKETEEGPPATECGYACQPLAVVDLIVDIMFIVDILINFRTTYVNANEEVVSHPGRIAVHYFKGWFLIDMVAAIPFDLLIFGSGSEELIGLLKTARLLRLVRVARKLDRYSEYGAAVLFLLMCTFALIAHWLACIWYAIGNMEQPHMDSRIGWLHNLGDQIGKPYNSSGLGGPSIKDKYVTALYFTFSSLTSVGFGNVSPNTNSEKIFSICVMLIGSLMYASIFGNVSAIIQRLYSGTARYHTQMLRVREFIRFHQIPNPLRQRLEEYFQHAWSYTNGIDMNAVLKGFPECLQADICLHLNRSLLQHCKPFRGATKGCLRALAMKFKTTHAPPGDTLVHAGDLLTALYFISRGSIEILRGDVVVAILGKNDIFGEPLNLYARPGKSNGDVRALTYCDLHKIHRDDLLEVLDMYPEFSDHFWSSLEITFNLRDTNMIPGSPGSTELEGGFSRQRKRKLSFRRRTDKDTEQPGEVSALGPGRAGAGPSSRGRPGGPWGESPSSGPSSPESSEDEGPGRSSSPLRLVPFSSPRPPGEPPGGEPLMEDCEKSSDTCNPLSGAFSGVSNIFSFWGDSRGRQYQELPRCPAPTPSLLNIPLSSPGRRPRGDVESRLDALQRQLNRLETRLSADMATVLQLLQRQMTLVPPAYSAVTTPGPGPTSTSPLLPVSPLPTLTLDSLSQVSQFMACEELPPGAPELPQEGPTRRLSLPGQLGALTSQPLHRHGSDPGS

Take `Cc1noc2cc(-c3c(O)cc(N4CCC(N)CC4)nc3-c3ccc(C#N)c(F)c3)c(F)cc12` [Example 26, 4-(6-(4-aminopiperidin-1-yl)-3-(5-fluoro-3-methylbenzo[d]isoxazol-6-yl)-4-hydroxypyridin-2-yl)-2-fluorobenzonitrile]: the IC50 is 7.45 nM with NCI-H1417 cells (setting [2]); > 30000 nM in series [1] (setting [3]); 3.67 ± 0.72 nM at LSD1 (HTRF, H3K4me1 substrate).

`COc1cc(F)c(-c2c(O)cc(N3CCC(N)CC3)nc2-c2ccc(C#N)c(F)c2)cc1F` [Example 41, 4-(6-(4-aminopiperidin-1-yl)-3-(2,5-difluoro-4-methoxyphenyl)-4-hydroxypyridin-2-yl)-2-fluorobenzonitrile hydrochloride]: the IC50 in the series with NCI-H1417 cells (setting [2]) was 7.93 nM; in series [1] (setting [3]) it was > 30000 nM; on LSD1 (HTRF, H3K4me1 substrate), 22.1 nM.

`COc1ccc(-c2c(O)cc(N3CCC(C)(N)CC3)nc2-c2ccc(C#N)c(F)c2)cc1F` [Example 50]: the IC50 stood at 33.2 nM with NCI-H1417 cells (setting [2]); 17600 nM in series [1] (setting [3]); 7 ± 2.1 nM at LSD1 (HTRF, H3K4me1 substrate).

On to `COc1cc(N2CCC(N)CC2)nc(-c2ccc(C#N)c(F)c2)c1-c1cc2onc(C)c2cc1F` [Example 90, 4-(6-(4-aminopiperidin-1-yl)-3-(5-fluoro-3-methylbenzo[d]isoxazol-6-yl)-4-methoxypyridin-2-yl)-2-fluorobenzonitrile], for which the IC50 in the series on NCI-H1417 cells (setting [2]) was found to be 5.34 nM; in series [1] (setting [3]) it was 4620 nM; at LSD1 (HTRF, H3K4me1 substrate), 7.48 nM.

For the molecule `COc1cc(N2CCC(N)CC2)nc(-c2ccc(C#N)c(F)c2)c1-c1cc(O)c(F)c(F)c1` [Example 92, 4-(6-(4-aminopiperidin-1-yl)-3-(3,4-difluoro-5-hydroxyphenyl)-4-methoxypyridin-2-yl)-2-fluorobenzonitrile], the IC50 in the series with NCI-H1417 cells (setting [2]) was found to be 8.78 nM; in series [1] (setting [3]), 10900 nM; on LSD1 (HTRF, H3K4me1 substrate) it was 8.2 ± 0.1 nM.

`COc1cc(N2CCC(N)CC2)nc(-c2ccc(C#N)c(F)c2)c1-c1ccc(C)c(O)c1` [Example 95, 4-(6-(4-aminopiperidin-1-yl)-3-(3-hydroxy-4-methylphenyl)-4-methoxypyridin-2-yl)-2-fluorobenzonitrile hydrochloride]: the IC50 with NCI-H1417 cells (setting [2]) is 0.467 nM; in series [1] (setting [3]), 6920 nM; at LSD1 (HTRF, H3K4me1 substrate), 0.16 ± 0.11 nM.

On to `COc1cc(N2CCC(N)CC2)nc(-c2ccc(C#N)c(F)c2)c1-c1ccc(Cl)c(O)c1` [Example 98, 4-(6-(4-aminopiperidin-1-yl)-3-(4-chloro-3-hydroxyphenyl)-4-methoxypyridin-2-yl)-2-fluorobenzonitrile hydrochloride], for which the IC50 in the series on NCI-H1417 cells (setting [2]) came to 0.604 nM; in series [1] (setting [3]), 5850 nM.

Turning to `COc1ccc(-c2c(OC(C)C)cc(N3CCC(N)CC3)nc2-c2ccc(C#N)c(F)c2)cc1O` [Example 104, 4-(6-(4-aminopiperidin-1-yl)-3-(3-hydroxy-4-methoxyphenyl)-4-isopropoxypyridin-2-yl)-2-fluor obenzonitrile], the IC50 came to 1.76 nM in the series on NCI-H1417 cells (setting [2]); 6700 nM in series [1]; 0.7 ± 0.02 nM at LSD1 (HTRF, H3K4me1 substrate).

Regarding `COc1ccc(-c2c(OC3CCCC3)cc(N3CCC(N)CC3)nc2-c2ccc(C#N)c(F)c2)cc1O` [Example 105, 4-(6-(4-aminopiperidin-1-yl)-4-(cyclopentyloxy)-3-(3-hydroxy-4-methoxyphenyl)pyridin-2-yl)-2-fluorobenzonitrile], the IC50 with NCI-H1417 cells (setting [2]) came out at 5.45 nM; in series [1] (setting [3]), 5600 nM; at LSD1 (HTRF, H3K4me1 substrate), 2.3 ± 0.04 nM.

Regarding `COc1ccc(-c2c(-c3ccc(C#N)c(F)c3)nc(N3CCC(N)CC3)n3ccnc23)cc1F` [Example 117, 4-(5-(4-aminopiperidin-1-yl)-8-(3-fluoro-4-methoxyphenyl)imidazolo[1,2-c]pyrimidin-7-yl]-2-fl uorobenzonitrile hydrochloride], the IC50 in the series with NCI-H1417 cells (setting [2]) came to 3.76 nM; in series [1] (setting [3]), 7190 nM; on LSD1 it was 0.46 ± 0.02 nM.

On to `COc1ccc(-c2c(-c3ccc(C#N)c(F)c3)nc(N3CCC(N)CC3)n3ccnc23)cn1` [Example 121, 4-(5-(4-aminopiperidin-1-yl)-8-(6-methoxypyridin-3-yl)imidazolo [1,2-c]pyrimidin-7-yl)-2-fluorobenzonitrile], for which the IC50 in the series on NCI-H1417 cells (setting [2]) was 8.38 nM; in series [1] (setting [3]), 6040 nM; on LSD1 (HTRF, H3K4me1 substrate), 3.15 ± 1.03 nM.

Turning to `CC(C)(O)Cc1ccc(-c2c(-c3ccc(C#N)c(F)c3)nc(N3CCC(N)CC3)n3ccnc23)c(F)c1` [Example 132, 4-(5-(4-aminopiperidin-1-yl)-8-(2-fluoro-4-(2-hydroxy-2-methylpropyl)phenyl)imidazolo[1,2-c]pyrimidin-7-yl)-2-fluorobenzonitrile hydrochloride], the IC50 in the series on NCI-H1417 cells (setting [2]) was 11.9 nM; in series [1] (setting [3]), > 30000 nM; on LSD1 (HTRF, H3K4me1 substrate), 5.62 nM.

Regarding `N#Cc1ccc(-c2nc(N3CCC(N)CC3)n3ccnc3c2-c2ccc(OC(F)(F)F)c(O)c2)cc1F` [Example 133, 4-(5-(4-aminopiperidin-1-yl)-8-(3-hydroxy-4-(trifluoromethoxy)phenyl)imidazolo [1,2-c]pyrimidin-7-yl)-2-fluorobenzonitrile hydrochloride], the IC50 with NCI-H1417 cells (setting [2]) is 1.04 nM; in series [1] (setting [3]), 7170 nM; on LSD1 (HTRF, H3K4me1 substrate), 0.54 ± 0.32 nM.

`Cc1ccc(-c2c(-c3ccc(C#N)c(F)c3)nc(N3CCC(N)CC3)c3ccoc23)cc1O` [Example 268, 4-(4-(4-aminopiperidin-1-yl)-7-(3-hydroxy-4-methylphenyl)furan[3,2-c]pyridin-6-yl)-2-fluorobe nzonitrile hydrochloride]: the IC50 in the series with NCI-H1417 cells was determined as 0.378 nM; on LSD1 it was 1.5 ± 0.5 nM.

With `COc1ccc(-c2c(-c3ccc(C#N)c(F)c3)nc(N3CCC(N)CC3)c3nc[nH]c23)cc1F` [Example 270, 4-(4-(4-aminopiperidin-1-yl)-7-(3-fluoro-4-methoxyphenyl)-1H-imidazolo[4,5-c]pyridin-6-yl)-2-fluorobenzonitrile hydrochloride], the IC50 in the series with NCI-H1417 cells (setting [2]) turned out to be 8.64 nM; on LSD1 (HTRF, H3K4me1 substrate) it was 10.1 nM.

With `COc1ccc(-c2c(-c3ccc(C#N)c(F)c3)nc(N3CCC(N)CC3)c3nc[nH]c23)cc1O` [Example 271, 4-(4-(4-aminopiperidin-1-yl)-7-(3-hydroxy-4-methoxyphenyl)-1H-imidazolo[4,5-c]pyridin-6-yl)-2-fluorobenzonitrile hydrochloride], the IC50 is 9.77 nM with NCI-H1417 cells (setting [2]) and 0.5 ± 0.4 nM at LSD1 (HTRF, H3K4me1 substrate).

Consider `Cc1noc2cc(-c3c(-c4ccc(C#N)c(F)c4)nc(N4CCC(N)CC4)c4nc[nH]c34)c(F)cc12` [Example 272, 4-(4-(4-aminopiperidin-1-yl)-7-(5-fluoro-3-methylbenzo[d]isoxazol-6-yl)-1H-imidazolo[4,5-c]pyridin-6-yl)-2-fluorobenzonitrile], for which the IC50 with NCI-H1417 cells (setting [2]) turned out to be 11 nM; on LSD1 (HTRF, H3K4me1 substrate), 1.8 ± 0.8 nM.

On to `Cc1noc2cc(-c3c(C#N)cc(N4CCC(N)CC4)nc3-c3ccc(C#N)c(F)c3)c(F)cc12` [Example 275, 6-(4-aminopiperidin-1-yl)-2-(4-cyano-3-fluorophenyl)-3-(5-fluoro-3-methylbenzo[d]isoxazol-6-yl)isonionitrile], for which the IC50 came to 3.6 nM with NCI-H1417 cells (setting [2]) and 0.94 nM at LSD1 (HTRF, H3K4me1 substrate).

For the molecule `COc1ccc(-c2c(C)nc(N3CCC(N)CC3)c(C#N)c2-c2ccc(C#N)c(F)c2)cc1O` [Example 276, 2-(4-aminopiperidin-1-yl)-4-(4-cyano-3-fluorophenyl)-5-(3-hydroxy-4-methoxyphenyl)-6-meth ylpyridine-3-carbonitrile], the IC50 in the series on NCI-H1417 cells (setting [2]) came out at 1.1 ± 0.7 nM; at LSD1 (HTRF, H3K4me1 substrate), 0.1 ± 0.01 nM.

As to `Cc1nc(N2CCC(N)CC2)c(C#N)c(-c2ccc(C#N)c(F)c2)c1-c1cc2onc(C)c2cc1F` [Example 277, 2-(4-aminopiperidin-1-yl)-4-(4-cyano-3-fluorophenyl)-5-(5-fluoro-3-methylbenzo[d]isoxazol-6-yl)-6-methylnicotinonitrile], the IC50 is 1.33 nM with NCI-H1417 cells (setting [2]) and 0.39 nM at LSD1 (HTRF, H3K4me1 substrate).

Take `COc1ccc(-c2c(-c3ccc(C#N)c(F)c3)nc(N3CCC(N)CC3)c3ncoc23)cc1O` [Example 278, 4-(4-(4-aminopiperidin-1-yl)-7-(3-hydroxy-4-methoxyphenyl)oxazolo[4,5-c]pyridin-6-yl)-2-fluo robenzonitrile]: the IC50 with NCI-H1417 cells (setting [2]) stood at 0.648 nM; at LSD1 (HTRF, H3K4me1 substrate), 0.3 ± 0.1 nM.

For `Cc1noc2cc(-c3c(-c4ccc(C#N)c(F)c4)nc(N4CCC(N)CC4)c4ncoc34)c(F)cc12` [Example 279, 4-(4-(4-aminopiperidin-1-yl)-7-(5-fluoro-3-methylbenzo[d]isoxazol-6-yl)oxazolo[4,5-c]pyridin-6-yl)-2-fluorobenzonitrile], the IC50 with NCI-H1417 cells (setting [2]) is 6.61 nM; on LSD1 (HTRF, H3K4me1 substrate), 2.27 nM.

Regarding `Cc1noc2cc(-c3c(-c4ccc(C#N)c(F)c4)nc(N4CCC(N)CC4)c4c3cnn4C)c(F)cc12` [Example 286, 4-(7-(4-aminopiperidin-1-yl)-4-(5-fluoro-3-methylbenzo[d]isoxazol-6-yl)-1-methyl-1H-pyrazolo [3,4-c]pyridin-5-yl)-2-fluorobenzonitrile], the IC50 in the series with NCI-H1417 cells (setting [2]) was 4.58 nM; on LSD1 (HTRF, H3K4me1 substrate), 3.5 nM.

For `COc1ccc(-c2c(-c3ccc(C#N)c(F)c3)nc(N3CCC(N)CC3)c3[nH]ncc23)cc1O` [Example 287, 4-(7-(4-aminopiperidin-1-yl)-4-(3-hydroxy-4-methoxyphenyl)-1H-pyrazolo[3,4-c]pyridin-5-yl)-2-fluorobenzonitrile hydrochloride], the IC50 was found to be 5.97 nM with NCI-H1417 cells (setting [2]) and 0.265 nM at LSD1 (HTRF, H3K4me1 substrate).

For the molecule `Cc1noc2cc(-c3c(-c4ccc(C#N)c(F)c4)nc(N4CCC(N)CC4)c4[nH]ncc34)c(F)cc12` [Example 288, 4-(7-(4-aminopiperidin-1-yl)-4-(5-fluoro-3-methylbenzo[d]isoxazol-6-yl)-1H-pyrazole[3,4-c]pyridin-5-yl)-2-fluorobenzonitrile hydrochloride], the IC50 with NCI-H1417 cells (setting [2]) is 6.33 nM; at LSD1 (HTRF, H3K4me1 substrate), 0.591 nM.
